The Kd is the free concentration of one partner at which half of the binding sites on the other are occupied at equilibrium, for simple one-to-one binding. A low value points to higher affinity. In general, ΔTm refers to the shift of the melting midpoint relative to a reference. As a reminder, the AC50 is the concentration at which the activity in the assay is half-maximal. The IC50 is the midpoint of a concentration-inhibition curve.

We go through five molecules from patent US20260347353A1, “INDOLIZINE DERIVATIVES FOR TREATING CANCER” (Antares Therapeutics, Inc., priority 2022, published 2026).

In assay [1] the target is T1, p53 Y220C mutant protein (amino acid residues 94-293) (Homo sapiens, UniProt P04637, Y220C).
T1 construct: p53 Y220C mutant protein (amino acid residues 94-293)
Kind of assay: Surface Plasmon Resonance (SPR) assay, p53 Y220C Kd_kinetic. Particulars: multi-cycle kinetics, 16 or 20 °C, pH 7.5, 1:1 binding model. In short, it runs like this:
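Kd from multi-cycle SPR kinetics fitted to a 1:1 model, using 2-fold, 7-point compound series over p53 Y220C (residues 94-293). Flow 30 μL/min, 60 s association, 120 s dissociation, at 16 or 20 °C in 50 mM Tris pH 7.5, 100 mM NaCl, 1 mM DTT, 0.01% Brij35, 0.05% Tween-20, 1% DMSO.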

Assay [2] deals with T1, p53 Y220C mutant protein (amino acid residues 94-293). Kind of assay: Thermal Shift Assay (TSA), p53 Y220C dTM. Format: binding. As for the experimental part:
[…] The volume is 5 μL/well. The sealed plate is then loaded onto a QuantStudio 7 Flex instrument for melting temperature (TM) measurement. The temperature is increased from 30 °C to 50 °C, at a rate of 0.03 °C/second. Data are fit into a Boltzmann two-state model to determine the TM.

The target of the next assay is p53 Y220C (Homo sapiens, UniProt P04637, Y220C). Kind of assay: Luciferase Reporter Assay, p53 Y220C (NCIH1299 cells with inducible p53 Y220C and p53 response element-luciferase). In kind it is cell-based. The conditions noted are these: 6 hour compound treatment, read-out: Luc P53 Y220C AC50. In short, it runs like this:
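NCI-H1299 cells stably carrying a p53 response element-luciferase reporter and Tet-inducible p53 Y220C were induced with 0.5 ug/mL doxycycline for 24 h, then treated with compound for 6 h. Luminescence was read after One-Glo addition. AC50 was derived relative to 10 uM tool compound as positive control.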
Background: A reporter such as luciferase makes a cellular process visible.

The test system of another assay is NUGC3 cells (p53 Y220C). Kind of assay: Cell Proliferation Assay (CellTiter-Glo), NUGC3 p53 Y220C. Format: cell-based. The conditions noted are these: Homo sapiens, NUGC-3, 120 h, 5 days, read-out: CTG NUGC3 P53 Y220C IC50. In short, it runs like this: (§1)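 Seeded at 250–500 cells/well, then compound-treated for 5 days; the NCIH1299 lines carry Tet-One inducible p53 Y220C or R273H transduced lentivirally. Viability by CellTiter-Glo luminescence after 10 min at room temperature; IC50 calculated.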
On the technique in general: Cellular ATP, detected with luciferase, serves as a proxy for viable cell number.

Assay [3] deals with NCIH1299-inducible p53 Y220C cells. Kind of assay: Cell Proliferation Assay (CellTiter-Glo), NCIH1299-inducible p53 Y220C. Format: cell-based. The conditions noted are these: Homo sapiens, NCI-H1299, 120 h, 5 days, read-out: CTG H1299 P53 Y220C IC50. In short, it runs like this: as §1
The subject of assay [4] is NCIH1299-inducible p53 R273H cells. Kind of assay: Cell Proliferation Assay (CellTiter-Glo), NCIH1299-inducible p53 R273H. In kind it is cell-based. Particulars: Homo sapiens, NCI-H1299, 120 h, 5 days, read-out: CTG H1299 P53 R273H IC50. As for the experimental part:
Inducible p53 Y220C and R273H constructs (Tet-One inducible expression system; Takara) were stably expressed in NCIH1299 cells by lentiviral transduction. NUGC3, A549, BxPC3, T3M4, HuH7, HCC2935, MFE296, NCIH1299, NCIH1299-inducible p53 Y220C, and NCIH1299-inducible p53 R273H cell lines were used for cell proliferation assay. 250-500 cells were seeded in each well of 384 plate and then compounds were dispensed into each well using Echo or Tecan. After 5 days of incubation, equal volume of CellTiter-Glo reagent (G7570; Promega) was added into each well and the plate was incubated at room temperature for 10 minutes with shaking. The luminescent signal was measured by PheraStar microplate reader and IC50 was calculated.

`CN1CC[C@@H](Nc2cccn3c(SC(F)(F)F)c(-c4noc(CNC(=O)C5CC5)n4)nc23)[C@@H](F)C1` [Example 1, N-{[3-(8-{[(3S,4R)-3-fluoro-1-methylpiperidin-4-yl]amino}-3-[(trifluoromethyl)sulfanyl]imidazo[1,2-a]pyridin-2-yl)-1,2,4-oxadiazol-5-yl]methyl}cyclopropanecarboxamide] returned a dissociation constant Kd in assay [1] of 10 to 100 nM. In assay [2] (10 uM compound), the ΔTm at 10 µM is 5 to 10 °C. For the same molecule, the ΔTm at 100 µM in assay [2] (100 μM compound, 3 hours at 20 °C, pH 7.4) lay within 5 to 10 °C. Also, the AC50 at p53 Y220C is ≥ 3000 nM. In addition, the IC50 in the assay with NUGC3 cells (p53 Y220C) is ≥ 3000 nM; in assay [3] it was ≥ 3000 nM; in assay [4] it was ≥ 10 µM.

In assay [1], `C[C@H](O)CC(=O)NCc1nc(-c2cc3c(N[C@@H]4CCN(C)C[C@@H]4F)cccn3c2SC(F)(F)F)no1` [Example 64, (3S)—N-{[3-(8-{[(3S,4R)-3-fluoro-1-methylpiperidin-4-yl]amino}-3-[(trifluoromethyl)sulfanyl]indolizin-2-yl)-1,2,4-oxadiazol-5-yl]methyl}-3-hydroxybutanamide] registered a Kd of 10 to 100 nM. Moreover, on p53 Y220C, the AC50 is ≥ 3000 nM. Also, the IC50 (in the assay with NUGC3 cells (p53 Y220C); in assay [3]) was ≥ 3000 nM each time.

In turn, `CN1CC[C@@H](Nc2cccn3c(SC(F)(F)F)c(-c4noc(CNC(=O)CC(C)(C)O)n4)cc23)[C@@H](F)C1` [Example 65, N-{[3-(8-{[(3S,4R)-3-fluoro-1-methylpiperidin-4-yl]amino}-3-[(trifluoromethyl)sulfanyl]indolizin-2-yl)-1,2,4-oxadiazol-5-yl]methyl}-3-hydroxy-3-methylbutanamide] came in with a Kd in assay [1] of 10 to 100 nM. Also, the AC50 on p53 Y220C is ≥ 3000 nM. The IC50 (in the assay with NUGC3 cells (p53 Y220C); in assay [3]) was ≥ 3000 nM in each case.

As to `CN1CC[C@@H](Nc2cccn3c(SC(F)(F)F)c(-c4noc(CNC(=O)c5cnc(N6CCOCC6)o5)n4)cc23)[C@@H](F)C1` [Example 66, N-{[3-(8-{[(3S,4R)-3-fluoro-1-methylpiperidin-4-yl]amino}-3-[(trifluoromethyl)sulfanyl]indolizin-2-yl)-1,2,4-oxadiazol-5-yl]methyl}-2-(morpholin-4-yl)-1,3-oxazole-5-carboxamide], in assay [1], the Kd was < 10 nM. Moreover, the AC50 at p53 Y220C was < 750 nM. For the same molecule, the IC50 (with NUGC3 cells (p53 Y220C); in assay [3]) was < 750 nM each time.

As for `CN1CC[C@@H](Nc2cccn3c(SC(F)(F)F)c(-c4noc(CNC(=O)N5CCOCC5)n4)cc23)[C@@H](F)C1` [Example 67, N-{[3-(8-{[(3S,4R)-3-fluoro-1-methylpiperidin-4-yl]amino}-3-[(trifluoromethyl)sulfanyl]indolizin-2-yl)-1,2,4-oxadiazol-5-yl]methyl}morpholine-4-carboxamide], in assay [1], the Kd was < 10 nM. For the same molecule, the AC50 on p53 Y220C was 750 to 1500 nM. In addition, the results for the IC50 (with NUGC3 cells (p53 Y220C); in assay [3]) were 1500 to 3000 nM and 750 to 1500 nM, respectively.
